Assay results: patent publication US20060121565A1, “Methods for increasing the production of a recombinant polypeptide from a host cell” (CYMIP A/S, priority 2002, published 2006)

T1: protease performing the cleavage of synthetic human CCK-33 to CCK-22 (metalloprotease, identified as Cym1p) (Saccharomyces cerevisiae, UniProt P32898)
T1 construct: endogenous in cells; host or cells: S. cerevisiae strain LJY123 (APE1, APE2, APE3 deleted; derived from Y14953), clarified crude cell extract
T1 sequence (P32898 17-989): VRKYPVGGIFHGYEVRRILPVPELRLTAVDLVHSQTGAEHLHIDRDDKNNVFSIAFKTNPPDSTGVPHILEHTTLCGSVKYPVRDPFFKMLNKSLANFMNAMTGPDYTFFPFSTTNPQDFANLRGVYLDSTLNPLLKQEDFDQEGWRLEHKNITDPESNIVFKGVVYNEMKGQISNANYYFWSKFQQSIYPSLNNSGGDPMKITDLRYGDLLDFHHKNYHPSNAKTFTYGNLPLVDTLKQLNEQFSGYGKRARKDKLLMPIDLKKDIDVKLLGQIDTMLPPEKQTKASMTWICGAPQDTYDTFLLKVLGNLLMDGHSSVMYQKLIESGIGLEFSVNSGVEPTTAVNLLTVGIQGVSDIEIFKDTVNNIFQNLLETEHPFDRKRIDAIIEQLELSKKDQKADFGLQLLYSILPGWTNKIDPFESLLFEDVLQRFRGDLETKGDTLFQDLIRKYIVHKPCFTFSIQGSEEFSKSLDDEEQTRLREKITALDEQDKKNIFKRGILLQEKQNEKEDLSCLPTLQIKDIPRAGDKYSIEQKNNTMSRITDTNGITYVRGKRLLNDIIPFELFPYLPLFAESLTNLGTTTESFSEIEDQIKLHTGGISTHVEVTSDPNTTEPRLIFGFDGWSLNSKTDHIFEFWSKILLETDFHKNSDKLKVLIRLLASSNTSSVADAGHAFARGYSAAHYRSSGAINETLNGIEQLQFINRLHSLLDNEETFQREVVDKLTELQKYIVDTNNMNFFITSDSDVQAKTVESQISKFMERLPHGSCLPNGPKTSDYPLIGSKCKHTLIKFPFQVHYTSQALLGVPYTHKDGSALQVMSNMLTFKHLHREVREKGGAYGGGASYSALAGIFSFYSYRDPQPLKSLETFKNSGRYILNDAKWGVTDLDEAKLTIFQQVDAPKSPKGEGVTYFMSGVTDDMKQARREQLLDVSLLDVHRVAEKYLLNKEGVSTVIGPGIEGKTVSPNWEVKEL

T2: Ac-CCK-33-Gly, P06307
T2 chain: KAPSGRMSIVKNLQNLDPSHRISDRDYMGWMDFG

B1: Saccharomyces cerevisiae Cym1p (protein)
chain: T1 sequence (P32898 17-989)

Assays:
[1] = biological target: T1, protease performing the cleavage of synthetic human CCK-33 to CCK-22 (metalloprotease, identified as Cym1p); experiment: In vitro protease assay: cleavage of synthetic CCK-33 to CCK-22 by crude yeast cell extract (LJY123); assay type: biochemical; conditions: extract from LJY123; 1 mM EDTA, 1 mM 1,10-orthophenanthroline; 30° C., 1 h
Method: FIG. 4. In vitro protease assay including inhibitors and activators. The fraction of CCK-22 was calculated from the immuno-reactivity using Ab 89009 divided by the total amount of mature and N-terminal extended CCK-22 measured with Ab 89009 after trypsin treatment. A, Effect of different inhibitors. B, Protease reactivation by addition of 1.2 mM divalent metal ions to extracts where the activity had been inhibited with 1 mM EDTA. The data represent mean±SD of three independent experiments.
FIG. 5. Protease reactivation by Zn^2+ and Mn^2+. […] The activity was measured as the fraction of matured CCK-22 after 30, 60 and 120 min incubation. The fraction of CCK-22 was calculated from the immuno-reactivity using Ab 89009 divided by the total amount of mature and N-terminal extended CCK-22 measured with Ab 89009 after trypsin treatment. […]
Two different antisera were used to determine the amount of processed cholecystokinin. […] The fraction of CCK processed to CCK-22 is calculated by division of the immuno-reactivity measured with Ab 89009 with the amount measured with the same antibody after the sample was treated with trypsin to measure the total amount of N-terminal extended CCK-22. […]
The nature of the protease performing the cleavage of synthetic human CCK-33 to CCK-22 was analysed by inclusion of a number of different inhibitors with the extract from LJY123. […]

Ac-CCK-33-Gly, P06307 = biological target: T2, Ac-CCK-33-Gly, P06307

Molecule | inhibition of proteolysis of CCK-33 to CCK-22 [1] | rate of CCK-22 production in the in vitro protease assay (Ac-CCK-33-Gly, P06307)
O=C(O)CN(CCN(CC(=O)O)CC(=O)O)CC(=O)O [EDTA] | inhibited | 
c1cnc2c(c1)ccc1cccnc12 [1,10 ortho-phenanthroline] | inhibited | 
B1 |  | Expression of CYM1 on a multicopy plasmid enhanced the rate of CCK-22 production several fold
